# Source: patent US20080161232A1, “C5a Receptor Antagonist” (JERINI AG, priority 2005, published 2008)
# Non-standard residues stand in square brackets, D forms with d. Residues, ends and D or L forms follow the SMILES beside them. ξ: configuration not given here. Phe(3-NO2) = N[C@@H](Cc1cccc([N+](=O)[O-])c1)C(=O)O; Phe(3,4,5-F3) = N[C@@H](Cc1cc(F)c(F)c(F)c1)C(=O)O; Phe(3,4-Cl2) = N[C@@H](Cc1ccc(Cl)c(Cl)c1)C(=O)O; Phe(2,4-Cl2) = N[C@@H](Cc1ccc(Cl)cc1Cl)C(=O)O; Phe(2-CF3) = N[C@@H](Cc1ccccc1C(F)(F)F)C(=O)O; Phe(3,4-F2) = N[C@@H](Cc1ccc(F)c(F)c1)C(=O)O; ξTrp(5-Me) = Cc1ccc2[nH]cc(CC(N)C(=O)O)c2c1; Phe(3-Cl) = N[C@@H](Cc1cccc(Cl)c1)C(=O)O; Phe(3-OMe) = COc1cccc(C[C@H](N)C(=O)O)c1; Phe(2-Cl) = N[C@@H](Cc1ccccc1Cl)C(=O)O; Phe(3-F) = N[C@@H](Cc1cccc(F)c1)C(=O)O; Phe(4-F) = N[C@@H](Cc1ccc(F)cc1)C(=O)O; 2Nal = N[C@@H](Cc1ccc2ccccc2c1)C(=O)O; Phe(2-F) = N[C@@H](Cc1ccccc1F)C(=O)O; Bta = N[C@@H](Cc1csc2ccccc12)C(=O)O; d(hLeu) = CC(C)CC[C@@H](N)C(=O)O; Cha = N[C@@H](CC1CCCCC1)C(=O)O; Orn = NCCC[C@H](N)C(=O)O
# Biological target: T1, human C5aR(CD88) (Homo sapiens, UniProt P21730)
# T1 construct: expressed in transfected cells; host or cells: rat basophilic leukemia cells (RBL)
# T1 sequence (P21730 1-350): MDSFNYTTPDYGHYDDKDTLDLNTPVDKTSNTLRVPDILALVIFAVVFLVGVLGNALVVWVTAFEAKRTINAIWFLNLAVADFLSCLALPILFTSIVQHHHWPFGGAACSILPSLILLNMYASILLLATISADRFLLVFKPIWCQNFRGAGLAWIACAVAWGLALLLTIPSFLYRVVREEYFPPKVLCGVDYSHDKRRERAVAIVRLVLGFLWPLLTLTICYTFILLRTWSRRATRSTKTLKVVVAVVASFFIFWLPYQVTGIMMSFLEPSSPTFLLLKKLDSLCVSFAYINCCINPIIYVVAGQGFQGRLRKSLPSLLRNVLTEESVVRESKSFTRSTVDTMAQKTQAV
# Test: Determination of the IC50 value in an enzyme release assay (functional assay, antagonistic activity)
# Format: cell-based
# Conditions: activity (group)
row,SMILES,IC50 [nM]
1,"CC(=O)N[C@@H](Cc1ccccc1)C(=O)N[C@@H](CCCN)C(=O)N1CCC[C@H]1C(=O)N[C@H](CCC(C)C)C(=O)N[C@@H](Cc1cccc(Cl)c1)C(=O)N[C@@H](Cc1ccccc1)C(N)=O [Compound 291, Ac-Phe-Orn-Pro-hle-Mcf-Phe-NH2] (Ac-F[Orn]P[d(hLeu)][Phe(3-Cl)]F-NH2)",50 to 200
2,"CC(=O)N[C@@H](Cc1ccccc1)C(=O)N[C@@H](CCCN)C(=O)N1CCC[C@H]1C(=O)N[C@H](CCC(C)C)C(=O)N[C@@H](Cc1ccc(F)cc1)C(=O)N[C@@H](Cc1ccccc1)C(N)=O [Compound 302, Ac-Phe-Orn-Pro-hle-Pff-Phe-NH2] (Ac-F[Orn]P[d(hLeu)][Phe(4-F)]F-NH2)",50 to 200

# Same assay, conditions: antagonistic activity; IC50 group in enzyme release assay, RBL cells expressing human C5aR(CD88); read-out: activity (group)
row,SMILES,IC50 [nM]
1,"CC(=O)N[C@@H](Cc1ccccc1)C(=O)N[C@@H](CCCN)C(=O)N1CCC[C@H]1C(=O)N[C@H](CCC(C)C)C(=O)N[C@@H](Cc1csc2ccccc12)C(=O)N[C@@H](Cc1ccccc1)C(N)=O [Compound 280, Ac-Phe-Orn-Pro-hle-Bta-Phe-NH2] (Ac-F[Orn]P[d(hLeu)][Bta]F-NH2)",20 to 50
2,"CC(=O)N[C@@H](Cc1ccccc1)C(=O)N[C@@H](CCCN)C(=O)N1CCC[C@H]1C(=O)N[C@H](CCC(C)C)C(=O)N[C@@H](Cc1csc2ccccc12)C(=O)N[C@H](Cc1ccccc1)C(=O)O [Compound 281, Ac-Phe-Orn-Pro-hle-Bta-phe-OH] (Ac-F[Orn]P[d(hLeu)][Bta][dF]-OH)",50 to 200
3,"CC(=O)N[C@@H](Cc1ccccc1)C(=O)N[C@@H](CCCN)C(=O)N1CCC[C@H]1C(=O)N[C@H](CCC(C)C)C(=O)N[C@@H](Cc1csc2ccccc12)C(=O)N[C@@H](Cc1ccc(O)cc1)C(N)=O [Compound 282, Ac-Phe-Orn-Pro-hle-Bta-Tyr-NH2] (Ac-F[Orn]P[d(hLeu)][Bta]Y-NH2)",50 to 200
4,"CC(=O)N[C@@H](Cc1ccccc1)C(=O)N[C@@H](CCCN)C(=O)N1CCC[C@H]1C(=O)N[C@H](CCC(C)C)C(=O)N[C@@H](Cc1ccc(F)c(F)c1)C(=O)N[C@@H](Cc1ccccc1)C(N)=O [Compound 283, Ac-Phe-Orn-Pro-hle-Dff-Phe-NH2] (Ac-F[Orn]P[d(hLeu)][Phe(3,4-F2)]F-NH2)",50 to 200
5,"CC(=O)N[C@@H](Cc1ccccc1)C(=O)N[C@@H](CCCN)C(=O)N1CCC[C@H]1C(=O)N[C@H](CCC(C)C)C(=O)N[C@@H](Cc1ccc(Cl)c(Cl)c1)C(=O)N[C@@H](Cc1ccccc1)C(N)=O [Compound 284, Ac-Phe-Orn-Pro-hle-Eaa-Phe-NH2] (Ac-F[Orn]P[d(hLeu)][Phe(3,4-Cl2)]F-NH2)",50 to 200
6,"CC(=O)N[C@@H](Cc1ccccc1)C(=O)N[C@@H](CCCN)C(=O)N1CCC[C@H]1C(=O)N[C@H](CCC(C)C)C(=O)NC(Cc1c[nH]c2ccc(C)cc12)C(=O)N[C@@H](Cc1ccccc1)C(N)=O (stereo partly drawn) [Compound 285, Ac-Phe-Orn-Pro-hle-Egc-Phe-NH2] (Ac-F[Orn]P[d(hLeu)][ξTrp(5-Me)]F-NH2)",50 to 200
7,"CC(=O)N[C@@H](Cc1ccccc1)C(=O)N[C@@H](CCCN)C(=O)N1CCC[C@H]1C(=O)N[C@H](CCC(C)C)C(=O)N[C@@H](Cc1ccc(Cl)cc1Cl)C(=O)N[C@@H](Cc1ccccc1)C(N)=O [Compound 286, Ac-Phe-Orn-Pro-hle-Egy-Phe-NH2] (Ac-F[Orn]P[d(hLeu)][Phe(2,4-Cl2)]F-NH2)",50 to 200
8,"CC(=O)N[C@@H](Cc1ccccc1)C(=O)N[C@@H](CCCN)C(=O)N1CCC[C@H]1C(=O)N[C@H](CCC(C)C)C(=O)N[C@@H](Cc1cccc([N+](=O)[O-])c1)C(=O)N[C@@H](Cc1ccccc1)C(N)=O [Compound 287, Ac-Phe-Orn-Pro-hle-Egz-Phe-NH2] (Ac-F[Orn]P[d(hLeu)][Phe(3-NO2)]F-NH2)",50 to 200
9,"CC(=O)N[C@@H](Cc1ccccc1)C(=O)N[C@@H](CCCN)C(=O)N1CCC[C@H]1C(=O)N[C@H](CCC(C)C)C(=O)N[C@@H](Cc1cccc(Cl)c1)C(=O)N[C@@H](Cc1ccc2ccccc2c1)C(N)=O [Compound 288, Ac-Phe-Orn-Pro-hle-Mcf-2Ni—NH2] (Ac-F[Orn]P[d(hLeu)][Phe(3-Cl)][2Nal]-NH2)",50 to 200
10,"CC(=O)N[C@@H](Cc1ccccc1)C(=O)N[C@@H](CCCN)C(=O)N1CCC[C@H]1C(=O)N[C@H](CCC(C)C)C(=O)N[C@@H](Cc1cccc(Cl)c1)C(=O)N[C@@H](CC1CCCCC1)C(N)=O [Compound 289, Ac-Phe-Orn-Pro-hle-Mcf-Cha-NH2] (Ac-F[Orn]P[d(hLeu)][Phe(3-Cl)][Cha]-NH2)",20 to 50
11,"CC(=O)N[C@@H](Cc1ccccc1)C(=O)N[C@@H](CCCN)C(=O)N1CCC[C@H]1C(=O)N[C@H](CCC(C)C)C(=O)N[C@@H](Cc1cccc(Cl)c1)C(=O)N[C@@H](Cc1ccc(F)cc1)C(N)=O [Compound 290, Ac-Phe-Orn-Pro-hle-Mcf-Pff-NH2] (Ac-F[Orn]P[d(hLeu)][Phe(3-Cl)][Phe(4-F)]-NH2)",50 to 200
12,"CC(=O)N[C@@H](Cc1ccccc1)C(=O)N[C@@H](CCCN)C(=O)N1CCC[C@H]1C(=O)N[C@H](CCC(C)C)C(=O)N[C@@H](Cc1cccc(F)c1)C(=O)N[C@@H](Cc1ccccc1)C(N)=O [Compound 292, Ac-Phe-Orn-Pro-hle-Mff-Phe-NH2] (Ac-F[Orn]P[d(hLeu)][Phe(3-F)]F-NH2)",50 to 200
13,"COc1cccc(C[C@H](NC(=O)[C@@H](CCC(C)C)NC(=O)[C@@H]2CCCN2C(=O)[C@H](CCCN)NC(=O)[C@H](Cc2ccccc2)NC(C)=O)C(=O)N[C@@H](Cc2ccccc2)C(N)=O)c1 [Compound 293, Ac-Phe-Orn-Pro-hle-Mmy-Phe-NH2] (Ac-F[Orn]P[d(hLeu)][Phe(3-OMe)]F-NH2)",50 to 200
14,"CC(=O)N[C@@H](Cc1ccccc1)C(=O)N[C@@H](CCCN)C(=O)N1CCC[C@H]1C(=O)N[C@H](CCC(C)C)C(=O)N[C@@H](Cc1ccccc1Cl)C(=O)N[C@@H](Cc1ccccc1)C(N)=O [Compound 294, Ac-Phe-Orn-Pro-hle-Ocf-Phe-NH2] (Ac-F[Orn]P[d(hLeu)][Phe(2-Cl)]F-NH2)",50 to 200
15,"CC(=O)N[C@@H](Cc1ccccc1)C(=O)N[C@@H](CCCN)C(=O)N1CCC[C@H]1C(=O)N[C@H](CCC(C)C)C(=O)N[C@@H](Cc1ccccc1F)C(=O)N[C@@H](Cc1ccccc1)C(N)=O [Compound 295, Ac-Phe-Orn-Pro-hle-Off-Phe-NH2] (Ac-F[Orn]P[d(hLeu)][Phe(2-F)]F-NH2)",50 to 200
16,"CC(=O)N[C@@H](Cc1ccccc1)C(=O)N[C@@H](CCCN)C(=O)N1CCC[C@H]1C(=O)N[C@H](CCC(C)C)C(=O)N[C@@H](Cc1ccccc1C(F)(F)F)C(=O)N[C@@H](Cc1ccccc1)C(N)=O [Compound 296, Ac-Phe-Orn-Pro-hle-Otf-Phe-NH2] (Ac-F[Orn]P[d(hLeu)][Phe(2-CF3)]F-NH2)",50 to 200
17,"CC(=O)N[C@@H](Cc1ccccc1)C(=O)N[C@@H](CCCN)C(=O)N1CCC[C@H]1C(=O)N[C@H](CCC(C)C)C(=O)N[C@@H](Cc1ccc(F)cc1)C(=O)N[C@@H](Cc1ccc2ccccc2c1)C(N)=O [Compound 297, Ac-Phe-Orn-Pro-hle-Pff-2Ni—NH2] (Ac-F[Orn]P[d(hLeu)][Phe(4-F)][2Nal]-NH2)",50 to 200
18,"CC(=O)N[C@@H](Cc1ccccc1)C(=O)N[C@@H](CCCN)C(=O)N1CCC[C@H]1C(=O)N[C@H](CCC(C)C)C(=O)N[C@@H](Cc1ccc(F)cc1)C(=O)N[C@@H](CC1CCCCC1)C(N)=O [Compound 298, Ac-Phe-Orn-Pro-hle-Pff-Cha-NH2] (Ac-F[Orn]P[d(hLeu)][Phe(4-F)][Cha]-NH2)",50 to 200
19,"CC(=O)N[C@@H](Cc1ccccc1)C(=O)N[C@@H](CCCN)C(=O)N1CCC[C@H]1C(=O)N[C@H](CCC(C)C)C(=O)N[C@@H](Cc1ccc(F)cc1)C(=O)N[C@@H](Cc1ccc(Cl)c(Cl)c1)C(N)=O [Compound 299, Ac-Phe-Orn-Pro-hle-Pff-Eaa-NH2] (Ac-F[Orn]P[d(hLeu)][Phe(4-F)][Phe(3,4-Cl2)]-NH2)",50 to 200
20,"COc1cccc(C[C@H](NC(=O)[C@H](Cc2ccc(F)cc2)NC(=O)[C@@H](CCC(C)C)NC(=O)[C@@H]2CCCN2C(=O)[C@H](CCCN)NC(=O)[C@H](Cc2ccccc2)NC(C)=O)C(N)=O)c1 [Compound 300, Ac-Phe-Orn-Pro-hle-Pff-Mmy-NH2] (Ac-F[Orn]P[d(hLeu)][Phe(4-F)][Phe(3-OMe)]-NH2)",50 to 200
21,"CC(=O)N[C@@H](Cc1ccccc1)C(=O)N[C@@H](CCCN)C(=O)N1CCC[C@H]1C(=O)N[C@H](CCC(C)C)C(=O)N[C@@H](Cc1ccc(F)cc1)C(=O)N[C@@H](Cc1ccc(F)cc1)C(N)=O [Compound 301, Ac-Phe-Orn-Pro-hle-Pff-Pff-NH2] (Ac-F[Orn]P[d(hLeu)][Phe(4-F)][Phe(4-F)]-NH2)",50 to 200
22,"CC(=O)N[C@@H](Cc1ccccc1)C(=O)N[C@@H](CCCN)C(=O)N1CCC[C@H]1C(=O)N[C@H](CCC(C)C)C(=O)N[C@@H](Cc1ccccc1)C(=O)N[C@@H](Cc1ccccc1)C(N)=O [Compound 304, Ac-Phe-Orn-Pro-hle-Phe-Phe-NH2] (Ac-F[Orn]P[d(hLeu)]FF-NH2)",50 to 200
23,"CC(=O)N[C@@H](Cc1ccccc1)C(=O)N[C@@H](CCCN)C(=O)N1CCC[C@H]1C(=O)N[C@H](CCC(C)C)C(=O)N[C@@H](Cc1cc(F)c(F)c(F)c1)C(=O)N[C@@H](Cc1ccccc1)C(N)=O [Compound 305, Ac-Phe-Orn-Pro-hle-Tff-Phe-NH2] (Ac-F[Orn]P[d(hLeu)][Phe(3,4,5-F3)]F-NH2)",50 to 200
24,"CC(=O)N[C@@H](Cc1ccccc1)C(=O)N[C@@H](CCCN)C(=O)N1CCC[C@H]1C(=O)N[C@H](CCC(C)C)C(=O)N[C@@H](Cc1c[nH]c2ccccc12)C(=O)N[C@@H](Cc1ccccc1)C(N)=O [Compound 306, Ac-Phe-Orn-Pro-hle-Trp-Phe-NH2] (Ac-F[Orn]P[d(hLeu)]WF-NH2)",50 to 200
